This data set concerns the target ATP-dependent translocase ABCB1 (Homo sapiens, UniProt P08183). Briefly: TP_TRANSPORTER: transepithelial transport (basal to apical) in HCT-8 cells. The data set is classed as functional, cell-based.

Chain of ATP-dependent translocase ABCB1 (P08183 whole entry): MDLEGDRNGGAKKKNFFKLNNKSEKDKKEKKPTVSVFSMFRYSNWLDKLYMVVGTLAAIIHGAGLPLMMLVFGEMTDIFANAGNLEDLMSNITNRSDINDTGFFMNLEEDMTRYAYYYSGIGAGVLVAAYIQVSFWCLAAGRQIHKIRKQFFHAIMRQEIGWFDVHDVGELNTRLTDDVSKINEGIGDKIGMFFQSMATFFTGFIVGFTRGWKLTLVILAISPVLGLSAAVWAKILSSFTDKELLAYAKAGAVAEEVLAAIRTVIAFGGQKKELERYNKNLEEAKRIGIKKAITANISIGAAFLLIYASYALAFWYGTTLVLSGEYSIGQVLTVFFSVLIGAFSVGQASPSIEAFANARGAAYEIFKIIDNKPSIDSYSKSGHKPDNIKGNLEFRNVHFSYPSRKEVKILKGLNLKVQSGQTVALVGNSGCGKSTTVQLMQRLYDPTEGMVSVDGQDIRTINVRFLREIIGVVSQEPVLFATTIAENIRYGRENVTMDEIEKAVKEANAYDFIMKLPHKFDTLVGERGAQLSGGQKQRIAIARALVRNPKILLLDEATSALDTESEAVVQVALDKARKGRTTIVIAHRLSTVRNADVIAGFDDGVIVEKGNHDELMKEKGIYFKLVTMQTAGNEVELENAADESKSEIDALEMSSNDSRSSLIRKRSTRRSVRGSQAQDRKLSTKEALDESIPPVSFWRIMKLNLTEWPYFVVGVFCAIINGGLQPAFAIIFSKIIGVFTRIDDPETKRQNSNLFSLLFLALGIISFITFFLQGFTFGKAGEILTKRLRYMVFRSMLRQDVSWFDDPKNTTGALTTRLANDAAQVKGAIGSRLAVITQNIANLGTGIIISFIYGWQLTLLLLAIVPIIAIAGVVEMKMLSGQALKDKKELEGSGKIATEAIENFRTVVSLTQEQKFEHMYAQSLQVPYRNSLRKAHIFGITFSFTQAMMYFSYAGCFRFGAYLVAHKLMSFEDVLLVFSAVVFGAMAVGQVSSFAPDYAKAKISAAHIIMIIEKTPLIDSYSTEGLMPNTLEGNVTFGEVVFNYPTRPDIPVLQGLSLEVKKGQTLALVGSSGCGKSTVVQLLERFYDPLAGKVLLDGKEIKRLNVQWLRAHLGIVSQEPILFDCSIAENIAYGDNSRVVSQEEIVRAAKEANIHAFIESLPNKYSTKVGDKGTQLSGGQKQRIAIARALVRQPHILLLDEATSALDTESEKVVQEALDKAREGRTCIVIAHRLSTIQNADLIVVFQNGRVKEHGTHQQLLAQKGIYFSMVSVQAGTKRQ

Take `CO[C@H]1C[C@@H]2CC[C@@H](C)[C@@](O)(O2)C(=O)C(=O)N2CCCC[C@H]2C(=O)O[C@H]([C@H](C)C[C@@H]2CC[C@@H](O)[C@H](OC)C2)CC(=O)[C@H](C)/C=C(\C)[C@@H](O)[C@@H](OC)C(=O)[C@H](C)C[C@H](C)/C=C/C=C/C=C/1C` [SIROLIMUS]: the Activity entry was “is not a substrate [-]”.

The values are drawn from ChEMBL document CHEMBL2074450 (J Pharmacol Exp Ther, 2002).
